target: T1, GCS (Canis lupus familiaris, UniProt A0A8I3MXG6); test: Assay 1: GCS Enzymatic Assay (MDCK cell lysate, C6-NBD-Ceramide, LC/MS); assay type: biochemical, canine; conditions: Table 1; MDCK cell lysate; read-out: IC50 (nM) generated from Assay 1
T1 sequence (A0A8I3MXG6 1-394): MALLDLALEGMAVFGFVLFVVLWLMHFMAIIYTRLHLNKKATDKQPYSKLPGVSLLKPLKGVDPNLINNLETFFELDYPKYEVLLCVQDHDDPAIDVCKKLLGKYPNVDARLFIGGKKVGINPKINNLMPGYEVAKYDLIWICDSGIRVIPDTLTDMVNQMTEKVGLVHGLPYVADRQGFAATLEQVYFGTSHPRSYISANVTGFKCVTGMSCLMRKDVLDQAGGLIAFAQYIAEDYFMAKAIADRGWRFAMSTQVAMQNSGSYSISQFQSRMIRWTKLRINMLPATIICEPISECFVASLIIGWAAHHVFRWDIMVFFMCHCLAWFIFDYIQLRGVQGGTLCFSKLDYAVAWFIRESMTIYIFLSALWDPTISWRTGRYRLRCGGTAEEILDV
Protocol: This assay was modified based on the study by Larsen et al. (J. Lipid Res. 2011, 53, 282). Madin-Darby canine kidney (MDCK) cell lysate was prepared using M-PER Mammalian Protein Extraction Reagent (Thermal Scientific) in the presence of a protease inhibitor cocktail (Roche). Protein concentration was determined using BCA assay kit (Pierce). Sixty micrograms of MDCK cell lysate was incubated with various concentrations of a compound described herein from 0.001 μM-10 μM, respectively, in 100 mM Tris buffer (pH 7.5) containing 10 mM MgCl2, 1 mM dithiothreitol, 1 mM EGTA, 2 mM NAD, 100 μM UDP-glucose, 10 μM C6-NBD-Ceramide (Matreya LLC, Pleasant Gap, Pa.), 35 μM dioleoylphosphatidylcholine and 5 μM sulfatide (Sigma) in a final reaction volume of 100 μL at 37° C. for 1 hour. 0.1% DMSO was used as mock treatment or control. The reaction was terminated by adding 100 μL acetonitrile solution and subjected to LC/MS analysis.
The quantitative analysis of NBD-Ceramide and glucosylceramide was performed on a Shimadzu ultra-fast liquid chromatography (Shimadzu, Japan) coupled with API 4000 triple quadrupole mass spectrometer (Applied Biosystems, Concord, Ontario, Canada). Sample separation was conducted on a Waters Xbridge™ BEH130 C18, 100 mm×4.6 mm i.d, 3.5 μm (Milford, Mass., USA). The mobile phase consisted of water and acetonitrile supplemented with 0.1% formic acid (v/v). The flow rate was 1.0 mL/min. The initial mobile phase was 20% acetonitrile and was ramped in a linear fashion to 50% acetonitrile in 0.4 min. From 0.4 to 1.5 min, the gradient was ramped to 98% acetonitrile, and then was held at […] until 8.0 min. Acetonitrile was reset to 20% in 1.5 min, and maintained until 10.0 min. The total run time was 10.0 min. The MS/MS detection was performed in ESI positive mode. The mass transition of NBD-Ceramide was m/z 576.36→558.40 under the collision energy of 15 V, and the mass transition of glucosylceramide was m/z 738.35→558.40 under 21V collision energy. The cell lysate was diluted with equal volume of acetonitrile. Aliquots of 50 μL diluted samples were added to 1.5 mL tubes, and 100 μL of acetonitrile containing internal standard (100 ng/mL tolbutamide) were added for protein precipitation. The mixture were vortexed and then centrifuged at 13000 rpm for 10 min. 70 μL of supernatant were mixed with 140 μL of H2O and the final solution were injected for LC/MS/MS analysis and IC50's and/or percent inhibitions calculated.

IC50 [nM] | SMILES
< 50 | O=C(N[C@H](CN1CCC1)[C@H](O)c1ccc2c(c1)OCCO2)C(F)(F)c1cc2cc(Cl)ccc2o1 [Compound 32D, N-((1R,2R)-3-(azetidin-1-yl)-1-(2,3-dihydrobenzo[b][1,4]dioxin-6-yl)-1-hydroxypropan-2-yl)-2-(5-chlorobenzofuran-2-yl)-2,2-difluoroacetamide]
< 50 | C[C@@H]1CCCN1C[C@@H](NC(=O)C(F)(F)c1cc2cc(Cl)ccc2o1)[C@H](O)c1ccc2c(c1)OCCO2 [Compound 39, 2-(5-chlorobenzofuran-2-yl)-N-((1R,2R)-1-(2,3-dihydrobenzo[b][1,4]dioxin-6-yl)-1-hydroxy-3-((1R)-2-methylpyrrolidin-1-yl)propan-2-yl)-2,2-difluoroacetamide]
< 50 | C[C@H]1CCCN1C[C@@H](NC(=O)C(F)(F)c1cc2cc(Cl)ccc2o1)[C@H](O)c1ccc2c(c1)OCCO2 [Compound 40, 2-(5-chlorobenzofuran-2-yl)-N-((1R,2R)-1-(2,3-dihydrobenzo[b][1,4]dioxin-6-yl)-1-hydroxy-3-((S)-2-methylpyrrolidin-1-yl)propan-2-yl)-2,2-difluoroacetamide]
< 50 | O=C(N[C@H](CN1CCCC1)[C@H](O)c1ccc(OC2CC2)c(Cl)c1)C(F)(F)c1cc2cc(Cl)ccc2o1 [Compound 44, N-((1R,2R)-1-(3-chloro-4-cyclopropoxyphenyl)-1-hydroxy-3-(pyrrolidin-1-yl)propan-2-yl)-2-(5-chlorobenzofuran-2-yl)-2,2-difluoroacetamide]
50 to 5000 | O=C(N[C@H](CN1CC[C@@H](F)C1)[C@H](O)c1ccc2c(c1)OCCO2)C(F)(F)c1cc2cc(Cl)ccc2o1 [Compound 46, 2-(5-chlorobenzofuran-2-yl)-N-((1R,2R)-1-(2,3-dihydrobenzo[b][1,4]dioxin-6-yl)-3-((1R)-3-fluoropyrrolidin-1-yl)-1-hydroxypropan-2-yl)-2,2-difluoroacetamide]
50 to 5000 | Cn1ncc2cc([C@@H](O)[C@@H](CN3CCCC3)NC(=O)C(F)(F)c3cc4cc(Cl)ccc4o3)ccc21 [Compound 49, 2-(5-chlorobenzofuran-2-yl)-2,2-difluoro-N-((1R,2R)-1-hydroxy-1-(1-methyl-1H-indazol-5-yl)-3-(pyrrolidin-1-yl)propan-2-yl)acetamide]

same assay, conditions: Table 1; values marked *; MDCK cell lysate

SMILES | % inhibition generated from Assay 1
O=C(N[C@H](CN1CCC1)[C@@H](O)c1ccc2c(c1)OCCO2)C(F)(F)c1cc2cc(Cl)ccc2o1 [Compound 32C, N-((1S,2R)-3-(azetidin-1-yl)-1-(2,3-dihydrobenzo[b][1,4]dioxin-6-yl)-1-hydroxypropan-2-yl)-2-(5-chlorobenzofuran-2-yl)-2,2-difluoroacetamide] | B* (the compound had a % inhibition of greater than or equal to about 3% but less than about 50%)
O=C(N[C@H](CN1CCCC1)[C@H](O)c1cc2c(cc1F)OCCO2)C(F)(F)c1cc2cc(Cl)ccc2o1 [Compound 33, 2-(5-chlorobenzofuran-2-yl)-2,2-difluoro-N-((1R,2R)-1-(7-fluoro-2,3-dihydrobenzo[b][1,4]dioxin-6-yl)-1-hydroxy-3-(pyrrolidin-1-yl)propan-2-yl)acetamide] | B* (the compound had a % inhibition of greater than or equal to about 3% but less than about 50%)
O=C(N[C@H](CN1CCCC1)[C@@H](O)c1cc2c(cc1F)OCCO2)C(F)(F)c1cc2cc(Cl)ccc2o1 [Compound 33A, 2-(5-chlorobenzofuran-2-yl)-2,2-difluoro-N-((1S,2R)-1-(7-fluoro-2,3-dihydrobenzo[b][1,4]dioxin-6-yl)-1-hydroxy-3-(pyrrolidin-1-yl)propan-2-yl)acetamide] | B* (the compound had a % inhibition of greater than or equal to about 3% but less than about 50%)
O=C(N[C@H](CN1CCCC1)[C@H](O)c1ccc2ncccc2c1)C(F)(F)c1cc2cc(Cl)ccc2o1 [Compound 34, 2-(5-chlorobenzofuran-2-yl)-2,2-difluoro-N-((1R,2R)-1-hydroxy-3-(pyrrolidin-1-yl)-1-(quinolin-6-yl)propan-2-yl)acetamide] | A* (the compound had a % inhibition of a percent inhibition of greater than or equal to about 50%)
O=C(N[C@H](CN1CCCC1)[C@@H](O)c1ccc2ncccc2c1)C(F)(F)c1cc2cc(Cl)ccc2o1 [Compound 34G, 2-(5-chlorobenzofuran-2-yl)-2,2-difluoro-N-((1S,2R)-1-hydroxy-3-(pyrrolidin-1-yl)-1-(quinolin-6-yl)propan-2-yl)acetamide] | B* (the compound had a % inhibition of greater than or equal to about 3% but less than about 50%)
CC1(C)CCN(C[C@@H](NC(=O)C(F)(F)c2cc3cc(Cl)ccc3o2)[C@@H](O)c2ccc3c(c2)OCCO3)C1 [Compound 36C, 2-(5-chlorobenzofuran-2-yl)-N-((1S,2R)-1-(2,3-dihydrobenzo[b][1,4]dioxin-6-yl)-3-(3,3-dimethylpyrrolidin-1-yl)-1-hydroxypropan-2-yl)-2,2-difluoroacetamide] | B* (the compound had a % inhibition of greater than or equal to about 3% but less than about 50%)
O=C(N[C@H](CN1CCCC1)[C@H](O)c1ccc(OC(F)(F)F)cc1)C(F)(F)c1cc2cc(Cl)ccc2o1 [Compound 37, 2-(5-chlorobenzofuran-2-yl)-2,2-difluoro-N-((1R,2R)-1-hydroxy-3-(pyrrolidin-1-yl)-1-(4-(trifluoromethoxy)phenyl)propan-2-yl)acetamide] | B* (the compound had a % inhibition of greater than or equal to about 3% but less than about 50%)
O=C(N[C@H](CN1CCCC1)[C@@H](O)c1ccc(OC(F)(F)F)cc1)C(F)(F)c1cc2cc(Cl)ccc2o1 [Compound 37G, 2-(5-chlorobenzofuran-2-yl)-2,2-difluoro-N-((1S,2R)-1-hydroxy-3-(pyrrolidin-1-yl)-1-(4-(trifluoromethoxy)phenyl)propan-2-yl)acetamide] | B* (the compound had a % inhibition of greater than or equal to about 3% but less than about 50%)
O=C(N[C@H](CN1CC[C@H](F)C1)[C@H](O)c1ccc2c(c1)OCCO2)C(F)(F)c1cc2cc(Cl)ccc2o1 [Compound 38, 2-(5-chlorobenzofuran-2-yl)-N-((1R,2R)-1-(2,3-dihydrobenzo[b][1,4]dioxin-6-yl)-3-((S)-3-fluoropyrrolidin-1-yl)-1-hydroxypropan-2-yl)-2,2-difluoroacetamide] | B* (the compound had a % inhibition of greater than or equal to about 3% but less than about 50%)
O=C(N[C@H](CN1CCC(F)(F)C1)[C@H](O)c1ccc2c(c1)OCCO2)C(F)(F)c1cc2cc(Cl)ccc2o1 [Compound 41, 2-(5-chlorobenzofuran-2-yl)-N-((1R,2R)-3-(3,3-difluoropyrrolidin-1-yl)-1-(2,3-dihydrobenzo[b][1,4]dioxin-6-yl)-1-hydroxypropan-2-yl)-2,2-difluoroacetamide] | B* (the compound had a % inhibition of greater than or equal to about 3% but less than about 50%)
O=C(N[C@H](CN1CCCC1)[C@@H](O)c1ccc(OC2CC2)c(Cl)c1)C(F)(F)c1cc2cc(Cl)ccc2o1 [Compound 44H, N-((1S,2R)-1-(3-chloro-4-cyclopropoxyphenyl)-1-hydroxy-3-(pyrrolidin-1-yl)propan-2-yl)-2-(5-chlorobenzofuran-2-yl)-2,2-difluoroacetamide] | B* (the compound had a % inhibition of greater than or equal to about 3% but less than about 50%)
O=C(N[C@H](CN1CC2(CCC2)C1)[C@H](O)c1ccc2c(c1)OCCO2)C(F)(F)c1cc2cc(Cl)ccc2o1 [Compound 48, 2-(5-chlorobenzofuran-2-yl)-N-((1R,2R)-1-(2,3-dihydrobenzo[b][1,4]dioxin-6-yl)-1-hydroxy-3-(2-azaspiro[3.3]heptan-2-yl)propan-2-yl)-2,2-difluoroacetamide] | B* (the compound had a % inhibition of greater than or equal to about 3% but less than about 50%)

Reference: patent US10227323B2, “Glucosylceramide synthase inhibitors for the treatment of diseases” (BIOMARIN PHARMACEUTICAL INC., priority 2013, dated 2019)
